Laboratory results as given in patent US20120283283A1, “METHODS FOR DETECTING ENHANCED RISK OF OPIOID-INDUCED HYPOXIA IN A PATIENT” (priority 2011, published 2012).

Tested on: patients with moderate to severe postoperative pain following bunionectomy surgery
Assay: Three double blind, randomized clinical studies (007, 008, 021): oxygen desaturation (SpO2<90%) by pulse oximetry during 48 hour treatment
Settings: for median number of episodes of SpO2<90%: patients who experienced oxygen desaturation
Method: Oxygen saturation was measured continuously during baseline and the 48 hour treatment periods using pulse oximetry. The total number and percentage of patients with oxygen desaturation (SpO2<90%) were recorded at: 0, 15, 30 and 45 minutes, and 1, 2, 3, 4, 5, 6 and 8 hours after study drug administration; at the time of administration of subsequent doses of study medication; at the time of administration of supplemental analgesic medication; 1 hour after administration of study medication; and whenever a desaturation occurred during the dosing period.
Respiration rate (<10 breaths/min, 10-12 breaths/min, >12 breaths/min) was summarized at the same time points as the SpO2 recordings. Cumulative MED was determined at the time of the first episode of SpO2<90%. All desaturations and use of supplemental oxygenation, use of narcotic antagonists against respiratory impairment, and respiratory related serious adverse events (SAEs) were recorded.
In subjects with oxygen desaturation the following data was recorded: cumulative MED at first desaturation; mean desaturation values; number of desaturation episodes; and total duration of desaturation episodes.
Some patients in the three clinical studies were enrolled who resided near study sites that are located at an altitude of about or over 4000 feet above sea level.

SMILES | median number of episodes of SpO2<90% | incidence of desaturation (SpO2<90%) (12 mg MED, lower elevation / non-high altitude sites) [%] | cumulative dose before experiencing an oxygen desaturation event (SpO2<90%) (cumulative MED at first desaturation) [mg] | incidence of desaturation at high elevation site compared to lower sites (morphine or oxycodone alone)
CN1CC[C@]23c4c5ccc(O)c4O[C@H]2[C@@H](O)C=C[C@H]3[C@H]1C5.O=S(=O)(O)O [morphine, morphine sulfate] | 2.0 | – | – | –
COc1ccc2c3c1O[C@H]1C(=O)CC[C@@]4(O)[C@@H](C2)N(C)CC[C@]314.Cl [oxycodone, oxycodone hydrochloride] | 2.0 | 1.6 | 24 | ten-fold greater
